Results: ChEMBL document CHEMBL3045972, “Effect of side-chain alteration on hormonal activity of nonsteroidal estrogen antagonists” (2010)

Tested on: Rattus norvegicus
Assay: Antiestrogenic activity in Rattus norvegicus Sprague-Dawley (rat) assessed as inhibition of ethynylestradiol-induced uterine weight at 3 mg/kg, po qd administered 3 days measured on day 31 relative to control
Format: functional
Details: 3 mg/kg

SMILES	inhibition (INH)
COc1ccc2c(c1)OC(C)(C)[C@@H](c1ccccc1)[C@@H]2c1ccc(O)cc1 (relative stereo; 1c) [listing 1 of 2 here]	46.11%

Same assay, conditions: Rattus norvegicus, Sprague-Dawley, po

SMILES	inhibition in vivo at 3 mg/kg
CCOC(=O)C(C)Oc1ccc([C@@H]2c3ccc(OC)cc3OC(C)(C)[C@H]2c2ccccc2)cc1 (single isomer, unassigned; (-))	40.6%
COc1ccc2c(c1)OC(C)(C)[C@H](c1ccccc1)[C@H]2c1ccc(O)cc1	50%
COc1ccc2c(c1)OC(C)(C)[C@@H](c1ccccc1)[C@@H]2c1ccc(O)cc1 (relative stereo; 1b) [listing 1 of 2 here]	60%

Tested on: Rattus norvegicus
Assay: Antiestrogenic activity in Rattus norvegicus Sprague-Dawley (rat) assessed as inhibition of ethynylestradiol-induced uterine weight at 10 mg/kg, po qd administered 3 days measured on day 31 relative to control
Format: functional
Details: 10 mg/kg

SMILES	inhibition (INH)
COc1ccc2c(c1)OC(C)(C)[C@@H](c1ccccc1)[C@@H]2c1ccc(OC(C)C(=O)NN)cc1 (relative stereo) [listing 1 of 2 here]	12.14%
COc1ccc2c(c1)OC(C)(C)[C@@H](c1ccccc1)[C@@H]2c1ccc(OC(C)C(=O)NN)cc1 (single isomer, unassigned; (-)) [listing 1 of 2 here]	25.37%
COc1ccc2c(c1)OC(C)(C)[C@@H](c1ccccc1)[C@@H]2c1ccc(OC(C)C(=O)O)cc1 (stereo in doubt; 3c) [listing 1 of 2 here]	10%

Same assay, conditions: Rattus norvegicus, Sprague-Dawley, po

SMILES	inhibition in vivo at 10 mg/kg
COc1ccc2c(c1)OC(C)(C)[C@H](c1ccccc1)[C@@H]2c1ccc(OC(C)C(=O)O)cc1 (relative stereo)	3.8%
COc1ccc2c(c1)OC(C)(C)[C@H](c1ccccc1)[C@H]2c1ccc(OC(C)C(=O)NN)cc1 (single isomer, unassigned; (+))	6.21%
COc1ccc2c(c1)OC(C)(C)[C@H](c1ccccc1)[C@@H]2c1ccc(OC(C)C(=O)NN)cc1 (relative stereo)	1.07%
COc1ccc2c(c1)OC(C)(C)[C@@H](c1ccccc1)[C@@H]2c1ccc(OC(C)C(=O)O)cc1 (relative stereo)	10.8%
CCOC(=O)C(C)Oc1ccc([C@@H]2c3ccc(OC)cc3OC(C)(C)[C@H]2c2ccccc2)cc1 (relative stereo) [listing 1 of 2 here]	3.98%
CCOC(=O)C(C)Oc1ccc([C@@H]2c3ccc(OC)cc3OC(C)(C)[C@@H]2c2ccccc2)cc1 (relative stereo)	3.71%
COc1ccc2c(c1)OC(C)(C)[C@H](c1ccccc1)[C@H]2c1ccc(OC(C)C(=O)O)cc1 (single isomer, unassigned; (+))	16.1%
CCOC(=O)C(C)Oc1ccc([C@H]2c3ccc(OC)cc3OC(C)(C)[C@@H]2c2ccccc2)cc1 (single isomer, unassigned; (+))	14.3%

Tested on: Rattus norvegicus
Assay: Estrogenic activity in Rattus norvegicus (rat) assessed as increase in uterine weight at 3 mg/kg, sc qd after 3 days relative to control
Format: functional
Details: Rattus norvegicus, sc, 72 h, route subcutaneous, read-out: INH

SMILES	uterine weight increase relative to control at 3 mg/kg
CCOC(=O)C(C)Oc1ccc([C@@H]2c3ccc(OC)cc3OC(C)(C)[C@H]2c2ccccc2)cc1 (single isomer, unassigned; (-))	122%
COc1ccc2c(c1)OC(C)(C)[C@H](c1ccccc1)[C@H]2c1ccc(O)cc1	109%

Same assay, conditions: route subcutaneous, 3 mg/kg

SMILES	uterine weight increase relative to control
COc1ccc2c(c1)OC(C)(C)[C@@H](c1ccccc1)[C@@H]2c1ccc(O)cc1 (relative stereo; 1c) [listing 1 of 2 here]	165%
COc1ccc2c(c1)OC(C)(C)[C@@H](c1ccccc1)[C@@H]2c1ccc(O)cc1 (relative stereo; 1b) [listing 1 of 2 here]	126.83%

Tested on: Rattus norvegicus
Assay: Estrogenic activity in Rattus norvegicus (rat) assessed as increase in uterine weight at 10 mg/kg, sc qd after 3 days relative to control
Format: functional
Details: route subcutaneous

SMILES	Activity
COc1ccc2c(c1)OC(C)(C)[C@H](c1ccccc1)[C@@H]2c1ccc(OC(C)C(=O)O)cc1 (relative stereo)	44.2%
COc1ccc2c(c1)OC(C)(C)[C@H](c1ccccc1)[C@H]2c1ccc(OC(C)C(=O)NN)cc1 (single isomer, unassigned; (+))	6.68%
COc1ccc2c(c1)OC(C)(C)[C@H](c1ccccc1)[C@@H]2c1ccc(O)cc1 (relative stereo)	33.6%
COc1ccc2c(c1)OC(C)(C)[C@H](c1ccccc1)[C@@H]2c1ccc(OC(C)C(=O)NN)cc1 (relative stereo)	110.22%
CCOC(=O)C(C)Oc1ccc([C@@H]2c3ccc(OC)cc3OC(C)(C)[C@H]2c2ccccc2)cc1 (relative stereo) [listing 1 of 2 here]	43.7%
CCOC(=O)C(C)Oc1ccc([C@@H]2c3ccc(OC)cc3OC(C)(C)[C@@H]2c2ccccc2)cc1 (relative stereo)	71.58%
COc1ccc2c(c1)OC(C)(C)[C@H](c1ccccc1)[C@H]2c1ccc(OC(C)C(=O)O)cc1 (single isomer, unassigned; (+))	6.88%
CCOC(=O)C(C)Oc1ccc([C@H]2c3ccc(OC)cc3OC(C)(C)[C@@H]2c2ccccc2)cc1 (single isomer, unassigned; (+))	0.19%

Same assay, conditions: route subcutaneous, 10 mg/kg

SMILES	Activity
COc1ccc2c(c1)OC(C)(C)[C@@H](c1ccccc1)[C@@H]2c1ccc(OC(C)C(=O)NN)cc1 (relative stereo) [listing 1 of 2 here]	101.91%
COc1ccc2c(c1)OC(C)(C)[C@@H](c1ccccc1)[C@@H]2c1ccc(OC(C)C(=O)NN)cc1 (single isomer, unassigned; (-)) [listing 1 of 2 here]	155.02%
COc1ccc2c(c1)OC(C)(C)[C@@H](c1ccccc1)[C@@H]2c1ccc(OC(C)C(=O)O)cc1 (relative stereo)	21.6%
COc1ccc2c(c1)OC(C)(C)[C@@H](c1ccccc1)[C@@H]2c1ccc(OC(C)C(=O)O)cc1 (stereo in doubt; 3c) [listing 1 of 2 here]	149%

Biological target: T1, Estrogen receptor (Rattus norvegicus) (UniProt P06211)
T1 sequence (whole entry): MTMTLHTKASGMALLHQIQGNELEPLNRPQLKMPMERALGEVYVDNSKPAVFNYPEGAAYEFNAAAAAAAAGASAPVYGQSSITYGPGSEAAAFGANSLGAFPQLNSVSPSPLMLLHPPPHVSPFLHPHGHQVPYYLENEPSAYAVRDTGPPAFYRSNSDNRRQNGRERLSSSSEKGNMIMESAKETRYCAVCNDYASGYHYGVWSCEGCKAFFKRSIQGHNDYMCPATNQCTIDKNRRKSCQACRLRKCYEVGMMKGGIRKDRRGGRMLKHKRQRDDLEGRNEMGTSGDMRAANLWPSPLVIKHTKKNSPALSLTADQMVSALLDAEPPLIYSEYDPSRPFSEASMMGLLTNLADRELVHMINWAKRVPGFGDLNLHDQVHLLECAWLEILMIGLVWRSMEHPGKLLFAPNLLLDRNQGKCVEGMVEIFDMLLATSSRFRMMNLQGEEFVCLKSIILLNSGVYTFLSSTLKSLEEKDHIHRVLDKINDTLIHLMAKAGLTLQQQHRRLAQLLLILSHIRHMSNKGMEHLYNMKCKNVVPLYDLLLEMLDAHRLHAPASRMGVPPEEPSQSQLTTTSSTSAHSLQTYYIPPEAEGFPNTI
Assay: Binding affinity to Charles Foster Rattus norvegicus (rat) uterine 17beta-estradiol receptor cytosolic form relative to estradiol
Details: not given

SMILES	Activity
COc1ccc2c(c1)OC(C)(C)[C@@H](c1ccccc1)[C@@H]2c1ccc(OC(C)C(=O)O)cc1 (stereo in doubt; 3c) [listing 2 of 2 here]	0.037%
COc1ccc2c(c1)OC(C)(C)[C@@H](c1ccccc1)[C@@H]2c1ccc(O)cc1 (relative stereo; 1b) [listing 2 of 2 here]	5.42%
COc1ccc2c(c1)OC(C)(C)[C@@H](c1ccccc1)[C@@H]2c1ccc(OC(C)C(=O)NN)cc1 (relative stereo) [listing 2 of 2 here]	0.052%
COc1ccc2c(c1)OC(C)(C)[C@H](c1ccccc1)[C@H]2c1ccc(OC(C)C(=O)NN)cc1 (single isomer, unassigned; (+))	0.24%
COc1ccc2c(c1)OC(C)(C)[C@H](c1ccccc1)[C@@H]2c1ccc(O)cc1 (relative stereo)	< 0.001%
CCOC(=O)C(C)Oc1ccc([C@@H]2c3ccc(OC)cc3OC(C)(C)[C@H]2c2ccccc2)cc1 (relative stereo) [listing 2 of 2 here]	0.029%
COc1ccc2c(c1)OC(C)(C)[C@H](c1ccccc1)[C@@H]2c1ccc(OC(C)C(=O)NN)cc1 (relative stereo)	0.011%
COc1ccc2c(c1)OC(C)(C)[C@H](c1ccccc1)[C@H]2c1ccc(O)cc1	2.1%
COc1ccc2c(c1)OC(C)(C)[C@@H](c1ccccc1)[C@@H]2c1ccc(OC(C)C(=O)NN)cc1 (single isomer, unassigned; (-)) [listing 2 of 2 here]	0.37%
COc1ccc2c(c1)OC(C)(C)[C@@H](c1ccccc1)[C@@H]2c1ccc(O)cc1 (relative stereo; 1c) [listing 2 of 2 here]	15.7%
